Molecules are shown by their SMILES.

As usually defined, the Ki is the dissociation constant of the complex between target and ligand, obtained from inhibition or displacement.

The target in the assay is Prostaglandin F2-alpha receptor (Bos taurus). The assay is described as follows: Inhibitory Binding constant (n=2) to Prostanoid FP receptor expressed in bovine corpus luteum.

`O=C(O)CCC/C=C\C[C@@H]1[C@@H](/C=C/[C@H](O)COc2cccc(Cl)c2)[C@H](O)CC[C@@H]1O` [7-{2-[4-(3-Chloro-phenoxy)-3-hydroxy-but-1-enyl]-3,6-dihydroxy-cyclohexyl}-hept-5-enoic acid]: the Ki was 56 µM.
Molecule `O=C(O)CCC/C=C\C[C@@H]1[C@@H](/C=C/[C@@H](O)COc2cccc(Cl)c2)[C@H](O)CC[C@@H]1O` [7-{2-[4-(3-Chloro-phenoxy)-3-hydroxy-but-1-enyl]-3,6-dihydroxy-cyclohexyl}-hept-5-enoic acid] came in with a Ki of 1.9 µM. Compared with the last molecule, the Ki is about 29-fold lower.
